The results in this text go back to ChEMBL document CHEMBL1201862, “PubChem BioAssay data set” (2004).

Experiment [1] can be described thus: cytotoxicity in HEK-293T cells, dose response, cytotoxicity control for TCR NF-kB inhibitor project, luminescence, T-cell screen hits (AID 489026).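 Also: cells exposed to compound about 14 hours before the viability readout.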 Format: functional, cell-based.
Experiment [2] can be described thus: C. albicans growth with fluconazole, confirmation, fluorescence, retest (AID 2467). It is filed as functional, cell-based.
Experiment [3] in a line: NIH-3T3 fibroblast cytotoxicity, dose response, cytotoxicity control, cell-based, fluorescence, Alamar Blue, secondary assay (AID 2327).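 Also: NIH-3T3 mouse fibroblasts cultured with fluconazole at 8 µg/mL.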 It is filed as functional.
For experiment [4], the target named is T1, Microphthalmia-associated transcription factor (Homo sapiens, UniProt O75030).
T1 sequence (O75030 whole entry): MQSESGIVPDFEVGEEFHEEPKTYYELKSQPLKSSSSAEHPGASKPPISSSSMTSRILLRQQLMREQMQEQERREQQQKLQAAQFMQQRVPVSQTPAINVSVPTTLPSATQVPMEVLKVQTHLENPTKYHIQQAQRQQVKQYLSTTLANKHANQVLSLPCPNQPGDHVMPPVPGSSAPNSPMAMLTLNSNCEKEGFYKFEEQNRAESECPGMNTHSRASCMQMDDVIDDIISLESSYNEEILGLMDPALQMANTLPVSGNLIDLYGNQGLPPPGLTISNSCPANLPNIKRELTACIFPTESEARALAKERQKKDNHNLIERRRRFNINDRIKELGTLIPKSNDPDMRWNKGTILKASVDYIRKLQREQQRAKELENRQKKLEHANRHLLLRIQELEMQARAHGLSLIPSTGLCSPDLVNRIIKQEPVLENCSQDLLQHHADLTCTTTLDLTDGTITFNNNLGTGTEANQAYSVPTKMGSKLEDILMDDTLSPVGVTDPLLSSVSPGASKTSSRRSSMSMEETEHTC
As to the kind of experiment: TRPM1 promoter luciferase signal decrease, dose response, MITF inhibitor project, cell-based, SK-MEL-5, cherry-picked, set 3 (AID 493073).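 Also: SK-MEL-5 melanoma cells with luciferase driven by the MITF target TRPM1 promoter.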 It is filed as functional.

The next experiment concerns the target T2, Caspase-3 (Homo sapiens, UniProt P42574).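 Also: Dose-response selectivity test against caspase-3 for candidate inhibitors of sentrin-specific proteases (SENPs).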
T2 sequence (P42574 whole entry): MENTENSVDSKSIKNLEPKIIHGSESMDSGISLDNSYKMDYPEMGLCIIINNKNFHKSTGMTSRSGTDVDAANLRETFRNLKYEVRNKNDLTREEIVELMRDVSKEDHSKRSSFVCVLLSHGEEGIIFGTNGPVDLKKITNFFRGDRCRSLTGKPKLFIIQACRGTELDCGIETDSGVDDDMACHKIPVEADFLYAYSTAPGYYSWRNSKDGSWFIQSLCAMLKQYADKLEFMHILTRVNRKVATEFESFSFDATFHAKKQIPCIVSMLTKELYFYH
It is filed as functional.

In experiment [5] the target is T3, Sentrin-specific protease 8 (Homo sapiens, UniProt Q96LD8).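 Also: luminescence read-out of SENP8 inhibition, dose-response confirmation following an ultra-high-throughput screen.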
T3 sequence (Q96LD8 whole entry): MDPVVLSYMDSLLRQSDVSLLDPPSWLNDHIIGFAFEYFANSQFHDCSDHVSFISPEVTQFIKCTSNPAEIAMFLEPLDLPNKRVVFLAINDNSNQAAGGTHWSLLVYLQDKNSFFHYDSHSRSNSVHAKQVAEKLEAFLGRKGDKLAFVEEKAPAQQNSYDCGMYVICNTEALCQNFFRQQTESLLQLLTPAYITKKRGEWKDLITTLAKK
Format: functional.

Experiment [6] deals with T4, Sentrin-specific protease 6 (Homo sapiens, UniProt Q9GZR1).
T4 sequence (Q9GZR1 whole entry): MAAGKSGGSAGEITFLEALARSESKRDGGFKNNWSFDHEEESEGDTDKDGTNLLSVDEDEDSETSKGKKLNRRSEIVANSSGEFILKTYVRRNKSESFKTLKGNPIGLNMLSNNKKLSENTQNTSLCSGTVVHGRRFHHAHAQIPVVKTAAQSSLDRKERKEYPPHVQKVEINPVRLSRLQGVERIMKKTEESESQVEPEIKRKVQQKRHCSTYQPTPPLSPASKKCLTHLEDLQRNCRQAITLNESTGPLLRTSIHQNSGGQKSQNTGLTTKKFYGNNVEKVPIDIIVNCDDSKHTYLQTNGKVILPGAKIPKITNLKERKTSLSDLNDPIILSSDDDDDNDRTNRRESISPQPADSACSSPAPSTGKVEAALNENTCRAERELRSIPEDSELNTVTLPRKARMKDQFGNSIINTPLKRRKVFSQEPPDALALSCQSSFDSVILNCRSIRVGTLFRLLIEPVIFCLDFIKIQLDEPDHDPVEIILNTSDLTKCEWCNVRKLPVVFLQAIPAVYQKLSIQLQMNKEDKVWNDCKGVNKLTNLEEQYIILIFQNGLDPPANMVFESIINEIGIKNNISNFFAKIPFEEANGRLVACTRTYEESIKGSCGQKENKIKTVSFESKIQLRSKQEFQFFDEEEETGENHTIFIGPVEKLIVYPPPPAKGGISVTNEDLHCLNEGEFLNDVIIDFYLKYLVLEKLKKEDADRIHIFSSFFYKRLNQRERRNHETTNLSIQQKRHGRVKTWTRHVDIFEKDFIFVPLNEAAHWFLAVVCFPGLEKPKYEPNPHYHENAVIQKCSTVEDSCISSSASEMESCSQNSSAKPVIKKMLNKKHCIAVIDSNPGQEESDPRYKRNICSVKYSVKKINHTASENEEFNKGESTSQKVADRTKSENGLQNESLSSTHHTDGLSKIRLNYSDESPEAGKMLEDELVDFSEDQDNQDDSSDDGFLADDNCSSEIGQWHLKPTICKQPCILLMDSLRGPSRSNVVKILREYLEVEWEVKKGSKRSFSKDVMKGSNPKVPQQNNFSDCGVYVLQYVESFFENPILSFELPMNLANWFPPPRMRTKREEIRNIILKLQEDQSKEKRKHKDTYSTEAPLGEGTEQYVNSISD
It is filed as functional.

The target of experiment [7] is T5, Sentrin-specific protease 7 (Homo sapiens, UniProt Q9BQF6).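 Also: Luminescence-based dose-response confirmation of ultra-high-throughput screening hits, measuring inhibition of SENP7.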
T5 sequence (Q9BQF6 whole entry): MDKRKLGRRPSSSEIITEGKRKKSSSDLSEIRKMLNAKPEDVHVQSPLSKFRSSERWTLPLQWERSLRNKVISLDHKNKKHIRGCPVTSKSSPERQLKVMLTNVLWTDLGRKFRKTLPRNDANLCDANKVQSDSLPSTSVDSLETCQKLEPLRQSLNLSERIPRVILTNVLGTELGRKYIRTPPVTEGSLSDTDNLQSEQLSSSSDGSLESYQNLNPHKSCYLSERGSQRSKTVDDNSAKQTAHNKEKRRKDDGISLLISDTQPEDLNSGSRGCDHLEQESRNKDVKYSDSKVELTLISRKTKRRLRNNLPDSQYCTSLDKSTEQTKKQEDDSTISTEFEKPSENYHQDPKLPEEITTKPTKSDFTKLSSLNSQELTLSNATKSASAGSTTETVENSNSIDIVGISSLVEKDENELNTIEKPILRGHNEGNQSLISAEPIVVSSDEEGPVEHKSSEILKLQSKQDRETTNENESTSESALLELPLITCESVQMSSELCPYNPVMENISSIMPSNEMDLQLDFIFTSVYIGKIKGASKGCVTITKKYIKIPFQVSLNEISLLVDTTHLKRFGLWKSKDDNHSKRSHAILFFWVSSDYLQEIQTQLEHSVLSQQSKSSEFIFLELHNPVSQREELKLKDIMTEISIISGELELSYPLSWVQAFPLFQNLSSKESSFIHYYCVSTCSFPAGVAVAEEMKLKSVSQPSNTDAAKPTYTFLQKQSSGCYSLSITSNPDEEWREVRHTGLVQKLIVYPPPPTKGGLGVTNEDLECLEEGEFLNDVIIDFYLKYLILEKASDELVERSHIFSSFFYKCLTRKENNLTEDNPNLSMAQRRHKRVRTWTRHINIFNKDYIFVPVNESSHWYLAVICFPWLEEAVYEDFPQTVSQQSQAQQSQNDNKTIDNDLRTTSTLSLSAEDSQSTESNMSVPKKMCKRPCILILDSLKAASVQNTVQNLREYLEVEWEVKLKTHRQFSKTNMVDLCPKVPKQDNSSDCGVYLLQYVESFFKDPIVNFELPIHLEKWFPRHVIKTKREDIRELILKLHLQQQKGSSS
It is filed as functional.

Experiment [8] concerns the target T6, DNA repair and recombination protein RAD54-like (Homo sapiens, UniProt Q92698).
T6 sequence (Q92698 whole entry): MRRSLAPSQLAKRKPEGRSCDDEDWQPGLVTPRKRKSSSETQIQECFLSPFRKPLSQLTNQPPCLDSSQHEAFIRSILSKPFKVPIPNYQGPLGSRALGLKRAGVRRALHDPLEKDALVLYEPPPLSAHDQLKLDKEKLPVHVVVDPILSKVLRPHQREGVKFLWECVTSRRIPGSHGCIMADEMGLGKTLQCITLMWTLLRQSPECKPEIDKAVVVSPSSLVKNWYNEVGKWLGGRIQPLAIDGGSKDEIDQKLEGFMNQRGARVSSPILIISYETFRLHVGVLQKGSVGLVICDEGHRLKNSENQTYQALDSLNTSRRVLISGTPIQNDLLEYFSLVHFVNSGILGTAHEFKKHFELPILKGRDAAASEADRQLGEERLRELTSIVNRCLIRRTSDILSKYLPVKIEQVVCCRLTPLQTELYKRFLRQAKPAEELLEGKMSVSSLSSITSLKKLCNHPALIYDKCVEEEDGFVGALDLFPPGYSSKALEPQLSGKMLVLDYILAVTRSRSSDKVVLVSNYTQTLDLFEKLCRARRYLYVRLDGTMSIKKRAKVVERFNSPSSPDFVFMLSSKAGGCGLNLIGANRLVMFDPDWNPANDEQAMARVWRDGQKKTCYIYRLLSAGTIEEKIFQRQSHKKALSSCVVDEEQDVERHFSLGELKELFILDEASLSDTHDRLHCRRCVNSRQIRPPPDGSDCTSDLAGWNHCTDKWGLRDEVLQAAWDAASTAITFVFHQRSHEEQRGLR
As to the kind of experiment: inhibitors of human RAD54 branch migration, confirmation, biochemical, fluorescence, cherry-picked samples, dose series (AID 651657). It is filed as functional.

The target in a further experiment is Cytochrome P450 3A4 (Homo sapiens, UniProt P08684). To be noted: Potency.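 Also: confirmatory qHTS run detecting inhibitors and substrates of CYP3A4.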
Chain of Cytochrome P450 3A4 (P08684 whole entry): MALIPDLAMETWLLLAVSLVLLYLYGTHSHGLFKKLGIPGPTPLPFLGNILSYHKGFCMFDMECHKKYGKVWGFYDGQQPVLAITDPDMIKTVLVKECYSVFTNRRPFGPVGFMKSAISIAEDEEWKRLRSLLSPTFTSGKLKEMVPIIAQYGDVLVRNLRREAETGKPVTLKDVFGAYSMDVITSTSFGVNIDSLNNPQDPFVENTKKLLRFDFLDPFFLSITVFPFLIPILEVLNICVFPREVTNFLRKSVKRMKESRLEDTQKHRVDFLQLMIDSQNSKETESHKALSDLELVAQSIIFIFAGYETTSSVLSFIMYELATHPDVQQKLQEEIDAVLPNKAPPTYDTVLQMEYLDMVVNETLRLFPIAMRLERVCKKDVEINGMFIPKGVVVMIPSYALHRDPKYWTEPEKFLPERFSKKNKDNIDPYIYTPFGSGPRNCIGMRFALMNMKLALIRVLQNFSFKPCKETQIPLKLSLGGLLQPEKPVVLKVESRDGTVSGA
In a further experiment the target is T7, Protein skinhead-1 (Caenorhabditis elegans, UniProt P34707).
T7 sequence (P34707 whole entry): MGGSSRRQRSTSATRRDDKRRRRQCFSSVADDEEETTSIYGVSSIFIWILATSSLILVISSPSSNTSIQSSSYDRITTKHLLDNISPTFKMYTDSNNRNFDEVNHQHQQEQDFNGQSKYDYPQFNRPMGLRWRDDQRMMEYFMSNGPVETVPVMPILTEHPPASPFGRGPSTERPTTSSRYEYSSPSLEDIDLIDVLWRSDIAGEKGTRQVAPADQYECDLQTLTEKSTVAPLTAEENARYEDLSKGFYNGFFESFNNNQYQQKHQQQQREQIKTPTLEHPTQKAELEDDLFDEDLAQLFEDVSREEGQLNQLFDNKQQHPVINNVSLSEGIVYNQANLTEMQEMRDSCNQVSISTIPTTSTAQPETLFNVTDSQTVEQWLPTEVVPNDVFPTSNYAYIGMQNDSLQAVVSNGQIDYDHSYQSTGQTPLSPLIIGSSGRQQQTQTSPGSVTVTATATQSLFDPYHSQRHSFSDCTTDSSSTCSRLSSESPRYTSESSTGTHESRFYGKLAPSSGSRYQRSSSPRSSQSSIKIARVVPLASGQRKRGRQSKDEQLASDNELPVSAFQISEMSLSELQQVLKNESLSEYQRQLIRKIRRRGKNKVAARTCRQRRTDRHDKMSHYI
Format: functional.

The structures appear in SMILES notation. Active and inactive are the calls of the source. A value given as a limit tells only on which side of the number the result lay.

By IC50 is commonly meant the midpoint of a concentration-inhibition curve. On to `Cc1cc(NC(=O)COC(=O)c2ccc(S(=O)(=O)N3CCCc4ccccc43)cc2)no1`, for which, in [1], the IC50 is > 80 µM (inactive).

As usually defined, the EC50 is the midpoint of the concentration-response curve. For orientation: AC50 means the concentration giving half of the maximal activity seen. `Cc1scc(C(=O)N/N=C/c2ccc([N+](=O)[O-])o2)c1C`: the EC50 is 1.48 µM (active) in experiment [2] and > 150 µM (inactive) in experiment [3]. In experiment [4], the AC50 is 2.19 µM (active).

With `CC(=O)c1sc(N/N=C\c2ccccc2O)nc1C`, the IC50 at Caspase-3 is 11 µM (active); in experiment [5] it was 16.3 µM (active); in experiment [6], 10.3 µM (active); in experiment [7], 3.4 µM (active).

On to `CCN(CC)CCNC(=O)c1cc2cc3ccc(OC)cc3nc2o1`, for which the AC50 in experiment [8] was 40.7 µM (active).

In the case of `O/C(=C\c1nc2ccccc2[nH]1)c1cccs1`, the IC50 was 9.98 µM (active) at Caspase-3, 13.1 µM (active) in experiment [5], 8.18 µM (active) in experiment [6] and 7.98 µM (active) in experiment [7].

Regarding `CN1CCN(CCCNC(=O)c2cc3c(=O)oc4ccccc4c3s2)CC1`, in experiment [8], the AC50 is 38.1 µM (active).

As for `O=C(Cc1ccccc1F)Nc1ccc(SC(F)F)cc1`, the concentration for half-maximal inhibition (IC50) at Caspase-3 is 41.8 µM (active); in [5], > 100 µM (inactive); in experiment [6] it was > 100 µM (inactive); in [7], 13.7 µM (active).

Take `O=c1c2ccccc2oc2cc(NCCCN3CCOCC3)ccc12`: in experiment [8], the half-maximal activity concentration (AC50) is 23.3 µM (active).

With `O=C(Nc1ccc(NC(=O)c2cccs2)c(Cl)c1)c1cccs1`, the 50% inhibitory concentration (IC50) on Caspase-3 was 17.4 µM (active); in experiment [5], 27.6 µM (active); in experiment [6] it was 24.3 µM (active); in [7], 6.62 µM (active).

For the compound `CCCn1c(-c2ccc(F)cc2)nc2c(NCCN(C(C)C)C(C)C)nc(C)nc21`, on Cytochrome P450 3A4, the AC50 is 10 µM (inconclusive).

`O=C(/C=C/c1cccs1)c1ccc(N2CCOCC2)cc1`: the IC50 at Caspase-3 is 6.94 µM (active); at Protein skinhead-1, > 100 µM (inactive); in [5], 5.04 µM (active); in experiment [6], 5.47 µM (active); in experiment [7] it was 2.77 µM (active).

For the compound `Cc1nc(Sc2nnnn2C)c2c3c(sc2n1)CCC3`, the IC50 in experiment [1] is > 80 µM (inactive). Besides, the AC50 in experiment [4] is 4.98 µM (active).

Turning to `COc1ccc(NS(=O)(=O)c2cc(NC(=O)CNC(=O)c3cccc(OC)c3)ccc2C)cc1`, the concentration at half-maximal activity (AC50) in experiment [4] was 11 µM (active).

On to `Cc1nnc2c(N3CCN(CCO)CC3)nc3ccccc3n12`, for which the AC50 in experiment [8] was 57.7 µM (active).
